Measured values published in publication PMC12114840, “Exploring the Anticancer Properties of 1,2,3-Triazole-Substituted Andrographolide Derivatives” (Pharmaceuticals, 2025).

What was measured:
[1] = tested on: PANC-1 cells (pancreatic ductal adenocarcinoma); test: Sulforhodamine B (SRB) antiproliferative assay, PANC-1; assay type: cell-based, human; conditions: Homo sapiens; PANC-1, 48 h, SRB; mean ± SEM of four to six independent experiments
Experimental: (§1) The antiproliferative properties of andrographolide and all prepared derivatives (2–26) were evaluated against a panel of different cancer cell lines, including human pancreatic ductal adenocarcinoma (PANC-1), colorectal adenocarcinoma (HCT116), melanoma (A375), breast adenocarcinoma (MCF-7) and a non-tumorigenic colon (CCD-18Co) cell line using the sulforhodamine B assay.
(§2) Human breast adenocarcinoma MCF-7, pancreatic ductal adenocarcinoma PANC-1, melanoma A375, and non-tumorigenic colon CCD-18Co cell lines were purchased from ATCC (Rockville, MD, USA). Human colorectal adenocarcinoma HCT116 cells were kindly provided by B. Vogelstein (The Johns Hopkins Kimmel Cancer Center, Baltimore, MD, USA). Tumor cells were routinely cultured in RPMI-1640 medium with UltraGlutamine from Biowest (VWR, Carnaxide, Portugal) supplemented with 10% fetal bovine serum (FBS) from Biowest (VWR, Carnaxide, Portugal), except for the PANC-1 cells, which were grown in DMEM (4.5 g/L glucose) with stable L-glutamine and sodium pyruvate and supplemented with 10% FBS. The non-tumorigenic CCD-18Co cells were cultured in EMEM (Lonza, VWR, Carnaxide, Portugal), supplemented with 10% FBS. All cells were incubated at 37 °C in a humidified atmosphere of 5% CO2. Routine mycoplasma testing was performed using the MycoAlert™ PLUS mycoplasma detection kit (Lonza).
(§3) For the evaluation of the compound effect on cell proliferation, human cell lines were seeded in 96-well plates at a density of 5.0 × 10^3 (HCT116, MCF-7, PANC-1, A375, and CCD-18Co) cells per well, for 24 h. Cells were then treated with serial dilutions of the compound (ranging from 0.63 to 30 µM), for an additional 48 h incubation period. The growth inhibitory effects were assessed by SRB assay, as described in [58], and the half-maximal inhibitory concentration (IC50 values) were determined for each cell line using the GraphPad Prism software version 7.0 (La Jolla, CA, USA). Culture medium containing a maximum of 0.05% dimethyl sulfoxide (DMSO) was used as negative control.

[2] = tested on: HCT116 cells (colorectal adenocarcinoma); test: Sulforhodamine B (SRB) antiproliferative assay, HCT116; assay type: cell-based; conditions: Homo sapiens, HCT-116, HCT116, 48 h, mean ± SEM of four to six independent experiments
Experimental: as §1, §2, §3

A375 cells (melanoma) = test: Sulforhodamine B (SRB) antiproliferative assay, A375; assay type: cell-based; conditions: Homo sapiens, A-375, A375, 48 h, mean ± SEM of four to six independent experiments
Experimental: as §1, §2, §3

[3] = tested on: MCF-7 cells (breast adenocarcinoma); test: Sulforhodamine B (SRB) antiproliferative assay, MCF-7; assay type: cell-based; conditions: Homo sapiens, MCF7, MCF-7, 48 h, mean ± SEM of four to six independent experiments
Experimental: as §1, §2, §3

[4] = tested on: CCD-18Co cells (non-tumorigenic colon); test: Sulforhodamine B (SRB) antiproliferative assay, CCD-18Co; assay type: cell-based; conditions: Homo sapiens, CCD-18Co non-tumorigenic, 48 h, mean ± SEM of four to six independent experiments
Experimental: as §1, §2, §3

SMILES	IC50 [1]	IC50 [2]	IC50 (A375 cells (melanoma))	IC50 [3]	IC50 [4]
C=C1CC[C@@H]2[C@](C)(CO)[C@H](O)CC[C@@]2(C)[C@@H]1C/C=C1/C(=O)OC[C@H]1O [Compound 1, andrographolide]	3.1 ± 0.1 µM	5.1 ± 1.5 µM	4 ± 0.1 µM	13.5 ± 0.5 µM	6.2 ± 1.1 µM
C=C1CC[C@@H]2[C@](C)(COC(C)=O)[C@H](OC(C)=O)CC[C@@]2(C)[C@@H]1C/C=C1/C(=O)OC[C@H]1OC(C)=O [Compound 2, 3,14,19-Triacetyl Andrographolide]	1.9 ± 0.2 µM	1.4 ± 0.1 µM	1.2 ± 0.2 µM	4.9 ± 0.1 µM	5.6 ± 1.3 µM
C=C1CC[C@@H]2[C@](C)(COC(C)=O)[C@H](OC(C)=O)CC[C@@]2(C)[C@@H]1C[C@@H](N=[N+]=[N-])C1=CCOC1=O [Compound 3, (12R)-azido-3,19-diacetoxy-14-deoxy-andrographolide]	1.9 ± 0.1 µM	7.9 ± 2.1 µM	1.3 ± 0.1 µM	6.6 ± 0.1 µM	3.8 ± 0.7 µM
C=C1CC[C@@H]2[C@](C)(COC(C)=O)[C@H](OC(C)=O)CC[C@@]2(C)[C@@H]1C[C@H](N=[N+]=[N-])C1=CCOC1=O [Compound 4, (12S)-azido-3,19-diacetoxy-14-deoxy-andrographolide]	3 ± 0.2 µM	1.5 ± 0.2 µM	1.2 ± 0.2 µM	6.9 ± 0.8 µM	2.2 ± 0.8 µM
C=C1CC[C@@H]2[C@](C)(COC(C)=O)[C@H](OC(C)=O)CC[C@@]2(C)[C@@H]1C[C@H](C1=CCOC1=O)n1cc(C(C)(C)O)nn1 [Compound 5, (12R)-4-(2-methyl-2-ol)-1,2,3-triazole-3,19-diacetoxy-14-deoxy-andrographolide]	8.5 ± 1 µM	8.4 ± 1.1 µM	7.7 ± 1.3 µM	25 ± 3 µM	7.1 ± 2.6 µM
C=C1CC[C@@H]2[C@](C)(COC(C)=O)[C@H](OC(C)=O)CC[C@@]2(C)[C@@H]1C[C@H](C1=CCOC1=O)n1cc(C(=O)OCC)nn1 [Compound 6, (12R)-4-propriolate-1,2,3-triazole-3,19-diacetoxy-14-deoxy-andrographolide]	3.4 ± 0.9 µM	1.2 ± 0.1 µM	1.3 ± 0.3 µM	3.8 ± 0.2 µM	4.4 ± 0.2 µM
C=C1CC[C@@H]2[C@](C)(COC(C)=O)[C@H](OC(C)=O)CC[C@@]2(C)[C@@H]1C[C@H](C1=CCOC1=O)n1cc(CNC(=O)OC(C)(C)C)nn1 [Compound 7, (12R)-4-(tert-butylmethyl carbamate)-1,2,3-triazole-3,19-diacetoxy-14-deoxy-andrographolide]	4.1 ± 0.3 µM	1.6 ± 0.4 µM	3.6 ± 0.9 µM	18 ± 0.1 µM	12.9 ± 2.2 µM
C=C1CC[C@@H]2[C@](C)(COC(C)=O)[C@H](OC(C)=O)CC[C@@]2(C)[C@@H]1C[C@H](C1=CCOC1=O)n1cc(Cc2ccccc2)nn1 [Compound 8, (12R)-4-benzyl-1,2,3-triazole-3,19-diacetoxy-14-deoxy-andrographolide]	3.1 ± 0.4 µM	2.1 ± 0.6 µM	23 ± 2 µM	15.5 ± 0.5 µM	8.7 ± 1.9 µM
C=C1CC[C@@H]2[C@](C)(COC(C)=O)[C@H](OC(C)=O)CC[C@@]2(C)[C@@H]1C[C@@H](C1=CCOC1=O)n1cc(Cc2ccccc2)nn1 [Compound 9, (12S)-4-benzyl-1,2,3-triazole-3,19-diacetoxy-14-deoxy andrographolide]	2 ± 0.1 µM	1.9 ± 0.6 µM	2.1 ± 0.3 µM	8.1 ± 0.1 µM	3.8 ± 0.9 µM
C=C1CC[C@@H]2[C@](C)(COC(C)=O)[C@H](OC(C)=O)CC[C@@]2(C)[C@@H]1C[C@H](C1=CCOC1=O)n1cc(-c2ccccc2)nn1 [Compound 10, (12R)-4-phenyl-1,2,3-triazole-3,19-diacetoxy-14-deoxy-andrographolide]	3.8 ± 0.7 µM	2.2 ± 0.1 µM	7.7 ± 1 µM	7.8 ± 0.8 µM	7.2 ± 0.6 µM
C=C1CC[C@@H]2[C@](C)(COC(C)=O)[C@H](OC(C)=O)CC[C@@]2(C)[C@@H]1C[C@@H](C1=CCOC1=O)n1cc(-c2ccccc2)nn1 [Compound 11, (12S)-4-phenyl-1,2,3-triazole-3,19-diacetoxy-14-deoxy-andrographolide]	3.4 ± 0.6 µM	1.9 ± 0.3 µM	8.2 ± 0.1 µM	4.2 ± 0.8 µM	3.3 ± 0.4 µM
C=C1CC[C@@H]2[C@](C)(COC(C)=O)[C@H](OC(C)=O)CC[C@@]2(C)[C@@H]1C[C@H](C1=CCOC1=O)n1cc(-c2ccc(N)cc2)nn1 [Compound 13, (12R)-4-aniline-1,2,3-triazole-3,19-diacetoxy-14-deoxy-andrographolide]	6.5 ± 0.4 µM	4.8 ± 1.3 µM	6.8 ± 0.9 µM	26 ± 3 µM	30 ± 2 µM
C=C1CC[C@@H]2[C@](C)(COC(C)=O)[C@H](OC(C)=O)CC[C@@]2(C)[C@@H]1C[C@H](C1=CCOC1=O)n1cc(-c2ccc(C#N)cc2)nn1 [Compound 14, (12R)-4-benzonitrile-1,2,3-triazole-3,19-diacetoxy-14-deoxy-andrographolide]	2.5 ± 0.3 µM	2 ± 0.6 µM	1.7 ± 0.2 µM	7.9 ± 0.6 µM	3.7 ± 0.9 µM
C=C1CC[C@@H]2[C@](C)(COC(C)=O)[C@H](OC(C)=O)CC[C@@]2(C)[C@@H]1C[C@@H](C1=CCOC1=O)n1cc(-c2ccc(C#N)cc2)nn1 [Compound 15, (12S)-4-benzonitrile-1,2,3-triazole-3,19-diacetoxy-14-deoxy-andrographolide]	3.3 ± 0.9 µM	1.3 ± 0.1 µM	1.2 ± 0.2 µM	5.6 ± 0.2 µM	6.2 ± 1.2 µM
C=C1CC[C@@H]2[C@](C)(COC(C)=O)[C@H](OC(C)=O)CC[C@@]2(C)[C@@H]1C[C@H](C1=CCOC1=O)n1cc(-c2ccc(OC)cc2)nn1 [Compound 16, (12R)-4-(4-methoxyphenyl)-1,2,3-triazole-3,19-diacetoxy-14-deoxy-andrographolide]	2.3 ± 0.2 µM	2.3 ± 0.9 µM	1.5 ± 0.2 µM	9.3 ± 0.1 µM	6.8 ± 1 µM
C=C1CC[C@@H]2[C@](C)(COC(C)=O)[C@H](OC(C)=O)CC[C@@]2(C)[C@@H]1C[C@@H](C1=CCOC1=O)n1cc(-c2ccc(OC)cc2)nn1 [Compound 17, (12S)-4-(4-methoxyphenyl)-1,2,3-triazole-3,19-diacetoxy-14-deoxy-andrographolide]	2.1 ± 0.1 µM	1.7 ± 0.5 µM	0.9 ± 0.1 µM	5.6 ± 0.2 µM	4.4 ± 0.9 µM
C=C1CC[C@@H]2[C@](C)(COC(C)=O)[C@H](OC(C)=O)CC[C@@]2(C)[C@@H]1C[C@H](C1=CCOC1=O)n1cc(-c2ccc(OC(F)(F)F)cc2)nn1 [Compound 18]	3.5 ± 1.6 µM	3.7 ± 0.5 µM	6.6 ± 0.8 µM	9.5 ± 0.5 µM	5.1 ± 0.1 µM
C=C1CC[C@@H]2[C@](C)(COC(C)=O)[C@H](OC(C)=O)CC[C@@]2(C)[C@@H]1C[C@@H](C1=CCOC1=O)n1cc(-c2ccc(OC(F)(F)F)cc2)nn1 [Compound 19]	3.1 ± 0.8 µM	4.1 ± 0.2 µM	7.1 ± 0.1 µM	7.9 ± 1.5 µM	6.6 ± 0.9 µM
C=C1CC[C@@H]2[C@](C)(COC(C)=O)[C@H](OC(C)=O)CC[C@@]2(C)[C@@H]1C[C@H](C1=CCOC1=O)n1cc(-c2ccc(-c3ccccc3)cc2)nn1 [Compound 20]	3 ± 1.1 µM	1.4 ± 0.3 µM	3.3 ± 1.3 µM	28 ± 2 µM	3.5 ± 0.3 µM
